Measured values: US12723023B2, “Ionizable cationic lipids for RNA delivery” (Arcturus Therapeutics, Inc., priority 2021, dated 2026)

Key:
[1] = Mouse plasma stability; assay type: in vitro ADME, CD-1 mouse; settings: 1 μM lipid
Protocol: Lipid stock solution was prepared by dissolution of the lipid in isopropanol at the concentration of 5 mg/mL. A requisite volume of the lipid-isopropanol solution was then diluted to 100 μM concentration at a total volume of 1.0 mL with in 50:50 (v/v) ethanol/water. Ten microliters of this 100 μM solution was spiked into 1.0 mL of mouse plasma (BioIVT, Cat. No.: MSE00PLNHUNN, CD-1 mouse, anticoagulant: sodium heparin, not filtered) that was pre-warmed to 37° C. and was stirred at 50 rpm with a magnetic stir bar. The starting concentration of lipids in plasma was thus 1 μM. At time points 0, 15, 30, 45, 60 and 120 min, 0.1 mL of the plasma was withdrawn from the reaction mixture and the protein was precipitated by adding 0.9 mL of ice-cold 4:1 (v/v) acetonitrile/methanol with 1 μg/mL of a selected internal standard lipid added. After filtration through a 0.45 micron 96-well filtering plate, the filtrates were analyzed by LC-MS (Thermo Fisher's Vanquish UHPLC-LTQ XL linear ion trap Mass Spectrometer); Waters XBridge BEH Shield RP18 2.5 micron (2.1×100 mm) column with its matching guard column. Mobile phase A was 0.1% formic acid in water, and mobile phase B was 0.1% formic acid in 1:1 (v/v) acetonitrile/methanol. Flow rate was 0.5 ml/min. Elution gradient was: Time 0-1 min: 10% B; 1-6 min: 10%-95% B; 6-8.5 min: 95% B; 8.5-9 min: 95%-10% B; 9-10 min: 10% B. Mass spectrometry was in positive scanning mode from 600-1100 m/z. The peak of the molecular ion of the lipids was integrated in the extracted ion chromatography (XIC) using Xcalibur software (Thermo Fisher). The relative peak area compared to T=0, after normalization by the peak area of the internal standard, was used as the percentage of the lipid remaining at each time point. T1/2 values were calculated using the first-order decay model.

[2] = In vivo biodegradability assay (lipid concentration in mouse liver by LC-MS); set-up: species or system mice; settings: BLOQ: below level of quantification; for In vivo degradability (ng tissue) at 48 h 0.1 mpk: Table 1, 0.1 mpk; for In vivo degradability (ng/tissue) at 48 h 0.1 mpk: Table 2, 0.1 mpk
Protocol: In vivo biodegradability assay was performed to assess the biodegradability of lipids in the LNP. Briefly, mice were injected with either 0.1 or 0.03 mg/Kg dose and after 24 or 48 hours mice livers were collected. To measure the concentration of lipids in the mouse liver, liver samples were homogenized in appropriate buffer in 1-10 dilution and mixed with the same amount of stabilized plasma. The samples were then mixed with organic solvents spiked with internal standard to precipitate proteins. After centrifugation, supernatant was diluted further with organic solvent before sample analysis by LC-MS. In LC-MS analysis, positive electrospray ionization was used, and multiple reaction monitoring (MRM) parameters were set up to specifically target the lipid analyte and internal standard. Calibration standards were prepared in stabilized plasma and mixed with same amount of homogenization buffer before protein precipitation. Quality control samples with known amounts of lipid was prepared in blank liver homogenate to monitor the precision and accuracy of the assay.

## CCCCCCCCC(=O)OCC(COC(=O)CCCCCCCC)OC(=O)CCCN(CCCC(=O)OC(COC(=O)CCCCCCCC)COC(=O)CCCCCCCC)C(=O)SCCCN(C)C [LIPID 1, ((4,4′-((((3-(Dimethylamino)propyl)thio)carbonyl)azanediyl)bis(butanoyl))bis(oxy))bis(propane-2,1,3-triyl) tetranonanoate]
[1]; Table 1, 37° C.
  Plasma half life % remaining after 2 h: 14%
[1]; Table 2, 37° C.
  Plasma half life % remaining after 2 h: 14%
[2]; Table 1, 0.03 mpk
  In vivo degradability (ng/tissue) at 48 h 0.03 mpk: BLOQ
[2]
  In vivo degradability (ng tissue) at 48 h 0.1 mpk: BLOQ
  In vivo degradability (ng/tissue) at 48 h 0.1 mpk: BLOQ
[2]; Table 2, 0.03 mpk
  In vivo degradability (ng/tissue) at 48 h 0.03 mpk: BLOQ

## CCCCCCCCC(=O)OCC(COC(=O)CCCCCCCC)OC(=O)CCCC(CCCC(=O)OC(COC(=O)CCCCCCCC)COC(=O)CCCCCCCC)OC(=O)CCCN(C)C.Cl [LIPID 3, bis(1,3-bis(Nonanoyloxy)propan-2-yl) 5-((4-(dimethylamino)butanoyl)oxy)nonanedioate HCl Salt]
[1]; Table 1, 37° C.
  Plasma half life % remaining after 2 h: 15%
[1]; Table 2, 37° C.
  Plasma half life % remaining after 2 h: 15%
[2]; Table 1, 0.03 mpk
  In vivo degradability (ng/tissue) at 48 h 0.03 mpk: BLOQ
[2]
  In vivo degradability (ng tissue) at 48 h 0.1 mpk: BLOQ
  In vivo degradability (ng/tissue) at 48 h 0.1 mpk: BLOQ
[2]; Table 2, 0.03 mpk
  In vivo degradability (ng/tissue) at 48 h 0.03 mpk: BLOQ

## CCCCCCCC(=O)OCC(COC(=O)CCCCCCC)OC(=O)CCCC(CCCC(=O)OC(COC(=O)CCCCCCC)COC(=O)CCCCCCC)SC(=O)CCCN(C)C [LIPID 4, bis(1,3-bis(Octanoyloxy)propan-2-yl) 5-((4-(dimethylamino)butanoyl)thio)nonanedioate]
[1]; Table 1, 37° C.
  Plasma half life % remaining after 2 h: 13%
[1]; Table 2, 37° C.
  Plasma half life % remaining after 2 h: 13%
[2]; Table 1, 0.03 mpk
  In vivo degradability (ng/tissue) at 48 h 0.03 mpk: BLOQ
[2]
  In vivo degradability (ng tissue) at 48 h 0.1 mpk: BLOQ
  In vivo degradability (ng/tissue) at 48 h 0.1 mpk: BLOQ
[2]; Table 2, 0.03 mpk
  In vivo degradability (ng/tissue) at 48 h 0.03 mpk: BLOQ

## CCCCCCCCC(=O)OCC(COC(=O)CCCCCCCC)OC(=O)CCC(CCC(=O)OC(COC(=O)CCCCCCCC)COC(=O)CCCCCCCC)OC(=O)CCCN(C)C [LIPID 5, bis(1,3-bis(Nonanoyloxy)propan-2-yl) 4-((4-(dimethylamino)butanoyl)oxy)heptanedioate]
[1]; Table 1, 37° C.
  Plasma half life % remaining after 2 h: 40%
[1]; Table 2, 37° C.
  Plasma half life % remaining after 2 h: 40%
[2]; Table 1, 0.03 mpk
  In vivo degradability (ng/tissue) at 48 h 0.03 mpk: BLOQ
[2]
  In vivo degradability (ng tissue) at 48 h 0.1 mpk: BLOQ
  In vivo degradability (ng/tissue) at 48 h 0.1 mpk: BLOQ
[2]; Table 2, 0.03 mpk
  In vivo degradability (ng/tissue) at 48 h 0.03 mpk: BLOQ

## CCCCCCCCC(=O)OCC(COC(=O)CCCCCCCC)OC(=O)CN(CC(=O)OC(COC(=O)CCCCCCCC)COC(=O)CCCCCCCC)C(=O)SCCCN(C)C [LIPID 8, ((2,2′-((((3-(Dimethylamino)propyl)thio)carbonyl)azanediyl)bis(acetyl))bis(oxy))bis(propane-2,1,3-triyl) tetranonanoate]
[1]; Table 1, 37° C.
  Plasma half life % remaining after 2 h: 81%
[1]; Table 2, 37° C.
  Plasma half life % remaining after 2 h: 81%
[2]; Table 1, 0.03 mpk
  In vivo degradability (ng/tissue) at 48 h 0.03 mpk: BLOQ
[2]
  In vivo degradability (ng tissue) at 48 h 0.1 mpk: BLOQ
  In vivo degradability (ng/tissue) at 48 h 0.1 mpk: BLOQ
[2]; Table 2, 0.03 mpk
  In vivo degradability (ng/tissue) at 48 h 0.03 mpk: BLOQ

## CN(C)CCCSC(=O)N(CCCC(=O)OC(COC(=O)CCC1CCCCC1)COC(=O)CCC1CCCCC1)CCCC(=O)OC(COC(=O)CCC1CCCCC1)COC(=O)CCC1CCCCC1 [LIPID 10, ((4,4′-((((3-(Dimethylamino)propyl)thio)carbonyl)azanediyl)bis(butanoyl))bis(oxy))bis(propane-2,1,3-triyl) tetrakis(3-cyclohexylpropanoate)]
[1]; Table 1, 37° C.
  Plasma half life % remaining after 2 h: 36%
[1]; Table 2, 37° C.
  Plasma half life % remaining after 2 h: 36%
[2]; Table 1, 0.03 mpk
  In vivo degradability (ng/tissue) at 48 h 0.03 mpk: BLOQ
[2]
  In vivo degradability (ng tissue) at 48 h 0.1 mpk: BLOQ
  In vivo degradability (ng/tissue) at 48 h 0.1 mpk: BLOQ
[2]; Table 2, 0.03 mpk
  In vivo degradability (ng/tissue) at 48 h 0.03 mpk: BLOQ
